Assay [1] deals with T1, Lysine-specific demethylase 4A (Homo sapiens, UniProt O75164).
T1 sequence (O75164 whole entry): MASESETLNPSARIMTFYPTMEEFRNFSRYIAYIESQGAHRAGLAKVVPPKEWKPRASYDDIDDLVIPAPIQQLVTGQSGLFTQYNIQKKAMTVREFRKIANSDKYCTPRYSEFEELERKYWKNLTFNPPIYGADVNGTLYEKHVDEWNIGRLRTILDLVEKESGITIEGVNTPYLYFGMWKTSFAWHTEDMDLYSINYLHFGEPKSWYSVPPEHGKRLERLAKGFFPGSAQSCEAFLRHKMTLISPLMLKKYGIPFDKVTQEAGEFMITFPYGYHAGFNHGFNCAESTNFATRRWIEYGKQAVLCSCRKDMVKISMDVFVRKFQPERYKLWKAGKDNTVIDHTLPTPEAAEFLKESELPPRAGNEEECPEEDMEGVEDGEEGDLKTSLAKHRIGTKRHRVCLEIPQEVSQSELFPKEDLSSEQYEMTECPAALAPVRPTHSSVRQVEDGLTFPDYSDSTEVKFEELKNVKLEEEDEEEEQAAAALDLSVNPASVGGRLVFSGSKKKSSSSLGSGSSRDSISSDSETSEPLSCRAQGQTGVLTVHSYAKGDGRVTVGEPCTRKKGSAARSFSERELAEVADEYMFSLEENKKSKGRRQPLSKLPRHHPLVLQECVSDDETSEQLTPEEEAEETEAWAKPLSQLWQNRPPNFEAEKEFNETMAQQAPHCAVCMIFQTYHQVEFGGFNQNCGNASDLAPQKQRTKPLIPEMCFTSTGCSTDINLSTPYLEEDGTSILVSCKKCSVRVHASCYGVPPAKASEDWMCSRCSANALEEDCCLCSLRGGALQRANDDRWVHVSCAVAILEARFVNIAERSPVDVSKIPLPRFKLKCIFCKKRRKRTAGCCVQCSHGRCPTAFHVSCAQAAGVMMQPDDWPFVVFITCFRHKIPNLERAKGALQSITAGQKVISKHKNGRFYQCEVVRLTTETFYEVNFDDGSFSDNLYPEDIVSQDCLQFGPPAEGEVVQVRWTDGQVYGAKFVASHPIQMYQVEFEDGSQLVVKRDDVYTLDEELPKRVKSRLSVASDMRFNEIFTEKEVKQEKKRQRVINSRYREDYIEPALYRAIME
In words: Binding affinity to thrombin cleavable N-terminal 6His tagged and 13C-IVLM labeled human KDM4A tandem TUDOR domain (897 to 1011 residues) expressed in Escherichia coli BL21(DE3)-T1R by ITC method. Background: ITC needs no label: the signal is the heat of the interaction.

Assay [2] concerns the target T2, Lysine-specific demethylase 4C (Homo sapiens, UniProt Q9H3R0).
T2 sequence (Q9H3R0 whole entry): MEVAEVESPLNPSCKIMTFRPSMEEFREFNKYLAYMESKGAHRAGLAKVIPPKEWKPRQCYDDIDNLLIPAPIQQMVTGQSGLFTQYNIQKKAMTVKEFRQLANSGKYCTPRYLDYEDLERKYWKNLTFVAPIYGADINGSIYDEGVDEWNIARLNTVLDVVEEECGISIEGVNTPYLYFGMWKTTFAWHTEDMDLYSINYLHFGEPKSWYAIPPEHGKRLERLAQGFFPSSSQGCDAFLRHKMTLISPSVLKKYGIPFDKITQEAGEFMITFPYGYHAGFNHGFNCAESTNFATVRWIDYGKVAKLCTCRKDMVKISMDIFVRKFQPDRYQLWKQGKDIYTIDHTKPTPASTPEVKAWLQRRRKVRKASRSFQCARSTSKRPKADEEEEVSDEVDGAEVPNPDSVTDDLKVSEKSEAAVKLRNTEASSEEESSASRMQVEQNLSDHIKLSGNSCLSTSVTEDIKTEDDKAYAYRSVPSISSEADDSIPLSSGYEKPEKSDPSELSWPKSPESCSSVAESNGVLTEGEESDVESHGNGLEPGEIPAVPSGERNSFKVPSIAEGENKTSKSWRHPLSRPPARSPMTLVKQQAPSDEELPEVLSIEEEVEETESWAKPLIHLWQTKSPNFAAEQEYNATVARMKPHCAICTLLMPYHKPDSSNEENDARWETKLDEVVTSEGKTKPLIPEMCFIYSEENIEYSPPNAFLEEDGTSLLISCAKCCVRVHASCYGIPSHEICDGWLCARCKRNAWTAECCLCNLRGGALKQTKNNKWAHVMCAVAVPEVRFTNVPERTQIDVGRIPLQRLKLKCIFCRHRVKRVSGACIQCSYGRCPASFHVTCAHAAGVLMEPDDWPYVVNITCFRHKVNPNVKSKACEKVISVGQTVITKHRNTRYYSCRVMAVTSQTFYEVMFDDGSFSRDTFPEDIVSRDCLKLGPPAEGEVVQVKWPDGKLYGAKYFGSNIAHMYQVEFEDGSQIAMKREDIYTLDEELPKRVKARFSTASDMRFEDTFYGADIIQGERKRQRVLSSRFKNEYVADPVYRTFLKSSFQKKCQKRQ
The experiment in a line: Binding affinity to 6His-tagged and human KDM4C tandem TUDOR domain (874 to 990 residues) expressed in Escherichia coli BL21(DE3)-T1R by ITC method.

Turning to `CN(C)C[C@H]1C2CCC(c3ccccc3)(C2)[C@H]1O` (some centres not stated), the Kd was found to be 81.7 µM in assay [1] and 129 µM in assay [2].

One may read the Kd as a measure of binding affinity in units of concentration.

Values taken from ChEMBL document CHEMBL4190382, “Targeting lysine specific demethylase 4A (KDM4A) tandem TUDOR domain - A fragment based approach” (Bioorg Med Chem Lett, 2018).
